Measured values: patent US7053070B2, “Pyrido[2,3-d]pyrimidine-2,7-diamine kinase inhibitors” (Warner-Lambert Company, priority 2000, dated 2006)

Experiments:
cdk2/cyclinE = cdk2/cyclinE (Homo sapiens, UniProt P24941); test: Cyclin dependent kinase 2 assay (cdk2/cyclinE), 32P incorporation, filter plate; format: biochemical; settings: retinoblastoma substrate, 12 mM ATP, 25° C., 15 minutes; read-out: Inhibition of Cdks: IC50 Cdk2/E
Procedure: (§1) Cyclin Dependent Kinase 1 and 2 Assays (cdk1/cyclinB, cdk2/cyclinA, cdk2/cyclinE)
(§2) Enzyme assays for IC50 determinations and kinetic evaluation are performed in a 96-well filter plate (Millipore MADVN6550) in a total volume of 0.1 mL of 20 mM TRIS (tris[hydroxymethyl]aminomethane), at pH 7.4, 50 mM NaCl, 1 mM dithiothreitol, 10 mM MgCl2, […] containing 0.25 μCi of [^32P]ATP, 20 ng of enzyme (either cdk1/B, cdk2/A, or cdk2E), 1 μg retinoblastoma and appropriate dilutions of the particular invention compound. All components except the ATP are added to the wells, and the plate is placed on a plate mixer for 2 minutes. The reaction is begun by addition of [^32P]ATP, and the plate is incubated at 25° C. for 15 minutes. The reaction is terminated by addition of 0.1 mL of 20% TCA. The plate is kept at 4° C. for at least 1 hour to allow the substrate to precipitate. The wells are then washed 5 times with 0.2 mL of 10% TCA and ^32P incorporation determined with a beta plate counter (Wallac Inc., Gaithersburg, Md.).

cdk1/cyclinB = cdk1/cyclinB (Homo sapiens, UniProt P06493); test: Cyclin dependent kinase 1 assay (cdk1/cyclinB), 32P incorporation, filter plate; format: biochemical; settings: retinoblastoma substrate, 12 mM ATP, 25° C., 15 minutes; read-out: Inhibition of Cdks: IC50 Cdk1/B
cdk1/cyclinB, sequence (P06493 whole entry, species assumed): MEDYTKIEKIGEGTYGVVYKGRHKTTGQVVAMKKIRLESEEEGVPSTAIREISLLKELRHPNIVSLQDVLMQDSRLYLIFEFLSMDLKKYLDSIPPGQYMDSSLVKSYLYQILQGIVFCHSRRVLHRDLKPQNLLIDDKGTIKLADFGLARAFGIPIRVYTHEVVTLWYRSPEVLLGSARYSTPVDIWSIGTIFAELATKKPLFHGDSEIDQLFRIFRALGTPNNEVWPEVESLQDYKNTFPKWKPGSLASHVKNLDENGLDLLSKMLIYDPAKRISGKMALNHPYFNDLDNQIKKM
cdk1/cyclinB, sequence (P14635 whole entry partner, species assumed): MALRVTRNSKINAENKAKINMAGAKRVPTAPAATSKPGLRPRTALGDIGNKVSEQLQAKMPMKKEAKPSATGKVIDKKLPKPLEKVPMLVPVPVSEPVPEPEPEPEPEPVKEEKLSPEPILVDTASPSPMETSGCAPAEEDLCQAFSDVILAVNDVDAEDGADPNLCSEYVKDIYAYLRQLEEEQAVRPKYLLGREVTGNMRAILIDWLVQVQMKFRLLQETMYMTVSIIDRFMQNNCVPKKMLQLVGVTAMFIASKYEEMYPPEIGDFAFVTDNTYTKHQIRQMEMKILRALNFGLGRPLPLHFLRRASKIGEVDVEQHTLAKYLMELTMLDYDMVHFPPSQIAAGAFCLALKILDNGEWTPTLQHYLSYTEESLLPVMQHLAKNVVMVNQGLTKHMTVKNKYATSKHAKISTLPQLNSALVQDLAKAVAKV
Procedure: as §1, §2

cdk4/cyclinD = cdk4/cyclinD (Homo sapiens, UniProt P11802); test: Cyclin Dependent Kinase 4 (cdk-4) Assay, 32P incorporation, filter plate; format: biochemical; settings: retinoblastoma substrate, 25 μM ATP, 25° C., 15 minutes; read-out: Inhibition of Cdks: IC50 Cdk4D
cdk4/cyclinD, sequence (P11802 whole entry, species assumed): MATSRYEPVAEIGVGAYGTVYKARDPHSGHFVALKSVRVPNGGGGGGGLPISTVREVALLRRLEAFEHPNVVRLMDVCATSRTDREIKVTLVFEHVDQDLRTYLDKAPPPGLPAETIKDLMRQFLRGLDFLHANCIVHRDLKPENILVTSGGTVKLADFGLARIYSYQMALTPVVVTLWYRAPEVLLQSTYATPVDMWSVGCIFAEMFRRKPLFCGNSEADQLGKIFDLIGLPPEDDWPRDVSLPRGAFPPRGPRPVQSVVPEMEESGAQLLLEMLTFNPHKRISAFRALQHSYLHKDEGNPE
cdk4/cyclinD, sequence (P24385 whole entry partner, species assumed): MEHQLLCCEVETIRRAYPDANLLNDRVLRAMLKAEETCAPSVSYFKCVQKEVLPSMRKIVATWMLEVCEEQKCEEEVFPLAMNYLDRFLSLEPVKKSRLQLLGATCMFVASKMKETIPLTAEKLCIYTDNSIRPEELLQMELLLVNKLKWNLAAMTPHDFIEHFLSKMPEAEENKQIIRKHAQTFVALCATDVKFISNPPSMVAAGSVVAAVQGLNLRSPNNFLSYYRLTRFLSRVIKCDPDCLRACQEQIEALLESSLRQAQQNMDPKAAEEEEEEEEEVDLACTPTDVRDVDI
Procedure: Cyclin Dependent Kinase 4 (cdk-4) Assay
Enzyme assays for IC50 determinations and kinetic evaluation are performed in 96-well filter plates (Millipore MADVN6550). The total volume is 0.1 mL containing a final concentration of 20 mM TRIS (tris[hydroxymethyl]aminomethane), at pH 7.4, 50 mM NaCl, 1 mM dithiothreitol, 10 mM MgCl2, 25 μM ATP containing 0.25 μCi of [^32P]ATP, 20 ng of cdk4, 1 μg of retinoblastoma, and appropriate dilutions of a compound of the present invention. All components except the ATP are added to the wells, and the plate is placed on a plate mixer for 2 minutes. The reaction is started by adding [^32P]ATP, and the plate is incubated at 25° C. for 15 minutes. The reaction is terminated by addition of 0.1 mL of 20% trichloroacetic acid (TCA). The plate is kept at 4° C. for at least 1 hour to allow the substrate to precipitate. The wells are then washed 5 times with 0.2 mL of 10% TCA and ^32P incorporation is determined with a beta plate counter (Wallac Inc., Gaithersburg, Md.).

cdk2/cyclinA = cdk2/cyclinA (Homo sapiens, UniProt P24941); test: Cyclin dependent kinase 2 assay (cdk2/cyclinA), 32P incorporation, filter plate; format: biochemical; settings: retinoblastoma substrate, 12 mM ATP, 25° C., 15 minutes; read-out: Inhibition of Cdks: IC50 Cdk2/A
Procedure: as §1, §2

IC50 (cdk2/cyclinE) [µM]	IC50 (cdk1/cyclinB) [µM]	melting point	IC50 (cdk4/cyclinD) [µM]	IC50 (cdk2/cyclinA) [µM]	SMILES
> 5	> 5	190 °C (dec.)	> 5	> 5	CCCN(CCC)C(=O)Nc1ccc2cnc(Nc3ccc(N4CCNCC4)cc3)nc2n1 [Compound 86, 3-[2-(4-Piperazin-1-yl-phenylamino)-pyrido[2,3-d]pyrimidin-7-yl]-1,1-dipropyl urea]
> 5	> 5	200 °C (dec.)	> 5	> 5	CN1CCN(C(=O)Nc2ccc3cnc(Nc4ccc(N5CCNCC5)cc4)nc3n2)CC1 [Compound 84, 4-Methyl-piperazine-1-carboxylic acid [2-(4-piperazin-1-yl-phenylamino)-pyrido[2,3-d]pyrimidin-7-yl]-amide]
> 5	> 5	204 to 206 °C (dec.)	> 5	> 5	CNC(=O)Nc1cc(C)c2cnc(Nc3ccc(N4CCNCC4)cc3)nc2n1 [Compound 64, 1-Methyl-3-[5-methyl-2-(4-piperazin-1-yl-phenylamino)-pyrido[2,3-d]pyrimidin-7-yl]-urea]
> 5	> 5	208 °C (dec.)	> 5	> 5	Cc1c(F)c(NC(=O)NC(C)C)nc2nc(Nc3ccc(N4CCNCC4)cc3)ncc12 [Compound 114, 1-[6-Fluoro-5-methyl-2-(4-piperazin-1-yl-phenylamino)-pyrido[2,3-d]pyrimidin-7-yl]-3-isopropyl-urea]
0.126	0.472	227 to 229 °C	0.027	0.213	C[C@@H]1CN(c2ccc(Nc3ncc4cc(F)c(NC(=O)NC5CCCCC5)nc4n3)cc2)C[C@H](C)N1 [Compound 52, 1-Cyclohexyl-3-{2-[4-(cis-3,5-dimethyl-piperazin-1-yl)-phenylamino]-6-fluoro-pyrido[2,3-d]pyrimidin-7-yl}-urea]
> 5	> 5	230 to 232 °C (dec.)	1.5	> 5	Cc1cc(NC(=O)NC(C)(C)C)nc2nc(Nc3ccc(N4CCNCC4)cc3)ncc12 [Compound 4, 1-tert-Butyl-3-[5-methyl-2-(4-piperazin-1-yl-phenylamino)-pyrido[2,3-d]pyrimidin-7-yl]-urea]
0.41	1.81	251 to 255 °C	> 5	1.01	CN(C)CCNC(=O)Nc1ccc2cnc(Nc3ccc(F)cc3)nc2n1 [Compound 99, 1-(2-Dimethylamino-ethyl)-3-[2-(4-fluoro-phenylamino)-pyrido[2,3-d]pyrimidin-7-yl]-urea]
> 5	> 5	177 °C (dec.)	> 5	> 5	CN(C(=O)Nc1ccc2cnc(Nc3ccc(N4CCNCC4)cc3)nc2n1)C1CCCCC1 [Compound 65, 1-Cyclohexyl-1-methyl-3-[2-(4-piperazin-1-yl-phenylamino)-pyrido[2,3-d]pyrimidin-7-yl]-urea]
> 5	> 5	228 to 230 °C (dec.)	> 5	> 5	Cc1cc(NS(=O)(=O)N(C)C)nc2nc(Nc3ccc(N4CCNCC4)cc3)ncc12 [Compound 71]
0.345	0.862	238 to 240 °C	> 5	0.278	O=C(NCCO)Nc1ccc2cnc(Nc3ccc(F)cc3)nc2n1 [Compound 97, 1-[2-(4-Fluoro-phenylamino)-pyrido[2,3-d]pyrimidin-7-yl]-3-(2-hydroxy-ethyl)-urea]
> 5	> 5	205 °C (dec.)	0.185	> 5	C[C@@H]1CN(c2ccc(Nc3ncc4cc(Cl)c(NC(=O)NC(C)(C)C)nc4n3)cc2)C[C@H](C)N1 [Compound 104, 1-tert-Butyl-3-{6-chloro-2-[4-(cis-3,5-dimethyl-piperazin-1-yl)-phenylamino]-pyrido[2,3-d]pyrimidin-7-yl}-urea]
